The format of the data set is physicochemical. The text has this:
Minor species are also detected by UV/visible spectroscopy in the HPLC of the complex and become more significant over time. The ^13C{^1H} NMR spectrum (d6-DMSO) of the complex was fully assigned for the α-anomer, and partially assigned for the β-anomer (as reflected above in TABLE 1).

Take “Tricarbonyl (N-(2′-Hydroxybenzyl)-2-amino-2-deoxy-D-glucose) rhenium(I) [[(L^2)Re(CO)3]]”: the stability in solution result is reported as “become visibly brown”.

The values above are taken from US20060051291A1, “Synthesis of radiolabeled sugar metal complexes” (priority 2004, published 2006).
